Test system: Genes belonging to other category
Assay: DNA chip mRNA expression in yeast, genes belonging to other category (Table 9)
Assay type: cell-based, Saccharomyces cerevisiae S288C
Procedure, shortened: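 Chemical exposure: 2 h, log-phase S. cerevisiae S288C, YPD, 25° C., dose set to inhibit growth without death. Profiling: mRNA labeled by reverse transcription with Cy3- or Cy5-dUTP, hybridized to whole-genome array. Output: fluorescence ratio against untreated culture.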

## C=CC=O [(14), acrolein]
Yeast gene YMR104C
  The level of expressed mRNA in the presence of chemical substance/The level of expressed mRNA in the absence of chemical substance: 1.1
Yeast gene YMR219W
  The level of expressed mRNA in the presence of chemical substance/The level of expressed mRNA in the absence of chemical substance: 0.5
Yeast gene YMR226C
  The level of expressed mRNA in the presence of chemical substance/The level of expressed mRNA in the absence of chemical substance: 1.6
Yeast gene YMR262W
  The level of expressed mRNA in the presence of chemical substance/The level of expressed mRNA in the absence of chemical substance: 0.9
Yeast gene YMR275C
  The level of expressed mRNA in the presence of chemical substance/The level of expressed mRNA in the absence of chemical substance: 0.8
Yeast gene YMR276W
  The level of expressed mRNA in the presence of chemical substance/The level of expressed mRNA in the absence of chemical substance: 1.2
Yeast gene YMR314W
  The level of expressed mRNA in the presence of chemical substance/The level of expressed mRNA in the absence of chemical substance: 1.0
Yeast gene YNL006W
  The level of expressed mRNA in the presence of chemical substance/The level of expressed mRNA in the absence of chemical substance: 0.8
Yeast gene YNL007C
  The level of expressed mRNA in the presence of chemical substance/The level of expressed mRNA in the absence of chemical substance: 0.4
Yeast gene YNL093W
  The level of expressed mRNA in the presence of chemical substance/The level of expressed mRNA in the absence of chemical substance: 1.1
Yeast gene YNL333W
  The level of expressed mRNA in the presence of chemical substance/The level of expressed mRNA in the absence of chemical substance: 1.9
Yeast gene YNR007C
  The level of expressed mRNA in the presence of chemical substance/The level of expressed mRNA in the absence of chemical substance: 1.5
Yeast gene YNR010W
  The level of expressed mRNA in the presence of chemical substance/The level of expressed mRNA in the absence of chemical substance: 1.3
Yeast gene YNR069C
  The level of expressed mRNA in the presence of chemical substance/The level of expressed mRNA in the absence of chemical substance: 2.1
Yeast gene YOL013C
  The level of expressed mRNA in the presence of chemical substance/The level of expressed mRNA in the absence of chemical substance: 0.9
Yeast gene YOL038W
  The level of expressed mRNA in the presence of chemical substance/The level of expressed mRNA in the absence of chemical substance: 2.1
Yeast gene YOL109W
  The level of expressed mRNA in the presence of chemical substance/The level of expressed mRNA in the absence of chemical substance: 1.4
Yeast gene YOL164W
  The level of expressed mRNA in the presence of chemical substance/The level of expressed mRNA in the absence of chemical substance: 1.3
Yeast gene YOR036W
  The level of expressed mRNA in the presence of chemical substance/The level of expressed mRNA in the absence of chemical substance: 1.2
Yeast gene YOR117W
  The level of expressed mRNA in the presence of chemical substance/The level of expressed mRNA in the absence of chemical substance: 1.0
Yeast gene YOR124C
  The level of expressed mRNA in the presence of chemical substance/The level of expressed mRNA in the absence of chemical substance: 0.8
Yeast gene YOR132W
  The level of expressed mRNA in the presence of chemical substance/The level of expressed mRNA in the absence of chemical substance: 0.7
Yeast gene YOR157C
  The level of expressed mRNA in the presence of chemical substance/The level of expressed mRNA in the absence of chemical substance: 2.2
Yeast gene YOR181W
  The level of expressed mRNA in the presence of chemical substance/The level of expressed mRNA in the absence of chemical substance: 0.9
Yeast gene YOR185C
  The level of expressed mRNA in the presence of chemical substance/The level of expressed mRNA in the absence of chemical substance: 2.1
Yeast gene YOR198C
  The level of expressed mRNA in the presence of chemical substance/The level of expressed mRNA in the absence of chemical substance: 1.1
Yeast gene YOR229W
  The level of expressed mRNA in the presence of chemical substance/The level of expressed mRNA in the absence of chemical substance: 1.0
Yeast gene YOR257W
  The level of expressed mRNA in the presence of chemical substance/The level of expressed mRNA in the absence of chemical substance: 1.5
Yeast gene YOR259C
  The level of expressed mRNA in the presence of chemical substance/The level of expressed mRNA in the absence of chemical substance: 1.2
Yeast gene YOR261C
  The level of expressed mRNA in the presence of chemical substance/The level of expressed mRNA in the absence of chemical substance: 1.8
Yeast gene YOR265W
  The level of expressed mRNA in the presence of chemical substance/The level of expressed mRNA in the absence of chemical substance: 2.5
Yeast gene YOR288C
  The level of expressed mRNA in the presence of chemical substance/The level of expressed mRNA in the absence of chemical substance: 0.8
Yeast gene YOR298W
  The level of expressed mRNA in the presence of chemical substance/The level of expressed mRNA in the absence of chemical substance: 2.1
Yeast gene YOR327C
  The level of expressed mRNA in the presence of chemical substance/The level of expressed mRNA in the absence of chemical substance: 1.5
Yeast gene YOR355W
  The level of expressed mRNA in the presence of chemical substance/The level of expressed mRNA in the absence of chemical substance: 0.6
Yeast gene YOR362C
  The level of expressed mRNA in the presence of chemical substance/The level of expressed mRNA in the absence of chemical substance: 1.4
Yeast gene YOR367W
  The level of expressed mRNA in the presence of chemical substance/The level of expressed mRNA in the absence of chemical substance: 1.5
Yeast gene YOR383C
  The level of expressed mRNA in the presence of chemical substance/The level of expressed mRNA in the absence of chemical substance: 0.6
Yeast gene YPL089C
  The level of expressed mRNA in the presence of chemical substance/The level of expressed mRNA in the absence of chemical substance: 0.8
Yeast gene YPL109C
  The level of expressed mRNA in the presence of chemical substance/The level of expressed mRNA in the absence of chemical substance: 1.3
Yeast gene YPL149W
  The level of expressed mRNA in the presence of chemical substance/The level of expressed mRNA in the absence of chemical substance: 1.0
Yeast gene YPL154C
  The level of expressed mRNA in the presence of chemical substance/The level of expressed mRNA in the absence of chemical substance: 0.8
Yeast gene YPL218W
  The level of expressed mRNA in the presence of chemical substance/The level of expressed mRNA in the absence of chemical substance: 1.5
Yeast gene YPR015C
  The level of expressed mRNA in the presence of chemical substance/The level of expressed mRNA in the absence of chemical substance: 1.5
Yeast gene YPR073C
  The level of expressed mRNA in the presence of chemical substance/The level of expressed mRNA in the absence of chemical substance: 1.5
Yeast gene YPR103W
  The level of expressed mRNA in the presence of chemical substance/The level of expressed mRNA in the absence of chemical substance: 1.8
Yeast gene YPR108W
  The level of expressed mRNA in the presence of chemical substance/The level of expressed mRNA in the absence of chemical substance: 1.0
Yeast gene YPR185W
  The level of expressed mRNA in the presence of chemical substance/The level of expressed mRNA in the absence of chemical substance: 1.0

Source: patent US8192962B2, “Processes for detecting toxic substances” (Daikin Industries, Ltd., priority 2001, dated 2012)
